The values that follow come from ChEMBL document CHEMBL4219110, “Structure optimization and preliminary bioactivity evaluation of N-hydroxybenzamide-based HDAC inhibitors with Y-shaped cap” (Bioorg Med Chem, 2018).

The structures appear in SMILES notation.

One test has as its target Histone deacetylase. The test is described as follows: Inhibition of HDAC in human HeLa cell nuclear extract using Boc-Lys (acetyl)-AMC as substrate preincubated for 5 mins followed by substrate addition measured after 30 mins by fluorescence assay. In kind it is protein assay.
For a further test, the system named is HeLa. The test is described as follows: cells. The settings on record: Homo sapiens, 48 h.
Another test concerns HEL. The test is described as follows: cells. Conditions: Homo sapiens, 48 h.
Test [1] has as its target T1, Protein deacetylase HDAC6 (Homo sapiens, UniProt Q9UBN7).
T1 sequence (Q9UBN7 whole entry): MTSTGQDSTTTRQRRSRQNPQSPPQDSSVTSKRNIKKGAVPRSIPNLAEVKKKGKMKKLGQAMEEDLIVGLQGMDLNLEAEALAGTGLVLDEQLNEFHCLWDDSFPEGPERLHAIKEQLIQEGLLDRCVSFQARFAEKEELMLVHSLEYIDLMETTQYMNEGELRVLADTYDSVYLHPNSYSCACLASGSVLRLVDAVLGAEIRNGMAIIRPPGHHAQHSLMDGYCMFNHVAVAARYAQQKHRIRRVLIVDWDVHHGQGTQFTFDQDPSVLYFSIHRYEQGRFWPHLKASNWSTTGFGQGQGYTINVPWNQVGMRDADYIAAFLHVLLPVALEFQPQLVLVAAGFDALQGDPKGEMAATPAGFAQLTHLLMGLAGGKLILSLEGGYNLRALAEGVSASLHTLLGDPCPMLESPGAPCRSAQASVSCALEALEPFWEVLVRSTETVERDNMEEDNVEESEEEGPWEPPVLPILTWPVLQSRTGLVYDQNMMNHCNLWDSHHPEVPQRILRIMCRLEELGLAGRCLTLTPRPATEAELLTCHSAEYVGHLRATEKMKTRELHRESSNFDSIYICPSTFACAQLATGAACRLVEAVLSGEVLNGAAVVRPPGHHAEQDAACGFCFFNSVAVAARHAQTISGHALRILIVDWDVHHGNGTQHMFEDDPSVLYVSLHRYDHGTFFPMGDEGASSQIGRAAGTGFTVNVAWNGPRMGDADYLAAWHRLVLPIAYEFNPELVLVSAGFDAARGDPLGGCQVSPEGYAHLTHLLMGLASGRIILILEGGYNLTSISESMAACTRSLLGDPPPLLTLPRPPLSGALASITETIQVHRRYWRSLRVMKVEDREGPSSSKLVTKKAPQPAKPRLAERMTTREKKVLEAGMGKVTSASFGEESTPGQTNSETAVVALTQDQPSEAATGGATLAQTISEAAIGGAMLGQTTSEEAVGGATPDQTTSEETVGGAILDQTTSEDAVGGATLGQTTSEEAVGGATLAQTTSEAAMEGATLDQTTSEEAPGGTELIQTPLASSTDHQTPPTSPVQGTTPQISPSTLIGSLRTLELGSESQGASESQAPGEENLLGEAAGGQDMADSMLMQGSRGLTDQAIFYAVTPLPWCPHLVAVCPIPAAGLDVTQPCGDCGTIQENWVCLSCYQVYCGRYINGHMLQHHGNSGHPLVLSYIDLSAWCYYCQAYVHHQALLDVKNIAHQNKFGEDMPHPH
The test is described as follows: Inhibition of HDAC6 (unknown origin) using Ac-Leu-GlyLys(Ac)-AMC as substrate preincubated for 5 mins followed by substrate addition measured after 30 mins by fluorescence assay.

Another test has as its system Jurkat. Description: Antiproliferative activity against human Jurkat cells after 48 hrs by MTT assay. In kind it is functional, cell-based. For orientation: Tetrazolium assays rely on reduction of a dye to a coloured formazan, in cell work by metabolically active cells.
Test [2] can be described thus: Antiproliferative activity against human SK-N-BE(2) cells after 48 hrs by MTT assay. In kind it is functional, cell-based. The settings on record: SKNBE2, 48 h.
Another test relates to MOLT-4. Description: Antiproliferative activity against human MOLT4 cells after 48 hrs by MTT assay. In kind it is functional, cell-based. Conditions: MOLT-4, 48 h.
Another test deals with T2, Histone deacetylase 11 (Homo sapiens, UniProt Q96DB2).
T2 sequence (Q96DB2 whole entry): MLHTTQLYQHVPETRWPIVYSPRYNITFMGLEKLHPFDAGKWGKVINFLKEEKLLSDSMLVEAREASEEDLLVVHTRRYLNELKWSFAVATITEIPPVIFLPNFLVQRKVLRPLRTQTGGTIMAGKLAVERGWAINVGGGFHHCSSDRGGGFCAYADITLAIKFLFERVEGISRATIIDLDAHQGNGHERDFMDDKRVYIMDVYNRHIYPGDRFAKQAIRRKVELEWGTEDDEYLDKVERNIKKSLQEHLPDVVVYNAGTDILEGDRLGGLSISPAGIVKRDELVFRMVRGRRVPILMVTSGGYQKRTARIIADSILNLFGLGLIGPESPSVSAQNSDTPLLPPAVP
The test is described as follows: Inhibition of HDAC11 (unknown origin) using Ac-Leu-GlyLys(Ac)-AMC as substrate preincubated for 5 mins followed by substrate addition measured after 30 mins by fluorescence assay.

The target in a further test is T3, Histone deacetylase 8 (Homo sapiens, UniProt Q9BY41).
T3 sequence (Q9BY41 whole entry): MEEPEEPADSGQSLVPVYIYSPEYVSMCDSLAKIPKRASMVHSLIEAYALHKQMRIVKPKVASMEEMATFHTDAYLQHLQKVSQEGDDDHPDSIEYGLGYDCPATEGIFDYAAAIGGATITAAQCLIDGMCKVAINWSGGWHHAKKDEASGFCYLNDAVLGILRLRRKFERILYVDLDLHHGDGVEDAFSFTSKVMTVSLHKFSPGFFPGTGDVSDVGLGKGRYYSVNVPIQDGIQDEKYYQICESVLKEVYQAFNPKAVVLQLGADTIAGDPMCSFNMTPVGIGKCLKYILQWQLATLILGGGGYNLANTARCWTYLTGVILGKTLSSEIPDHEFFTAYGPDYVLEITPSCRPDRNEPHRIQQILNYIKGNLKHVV
The test is described as follows: Inhibition of HDAC8 (unknown origin) using Ac-Leu-GlyLys(Ac)-AMC as substrate preincubated for 5 mins followed by substrate addition measured after 30 mins by fluorescence assay.

Another test deals with U-937. Description: Antiproliferative activity against human U937 cells after 48 hrs by MTT assay. Format: functional, cell-based. Conditions: U-937, 48 h.
The target in the next test is Histone deacetylase 1 (Homo sapiens, UniProt Q13547). Description: Inhibition of HDAC1 (unknown origin) using Ac-Leu-GlyLys(Ac)-AMC as substrate preincubated for 5 mins followed by substrate addition measured after 30 mins by fluorescence assay.
Chain of Histone deacetylase 1 (Q13547 whole entry): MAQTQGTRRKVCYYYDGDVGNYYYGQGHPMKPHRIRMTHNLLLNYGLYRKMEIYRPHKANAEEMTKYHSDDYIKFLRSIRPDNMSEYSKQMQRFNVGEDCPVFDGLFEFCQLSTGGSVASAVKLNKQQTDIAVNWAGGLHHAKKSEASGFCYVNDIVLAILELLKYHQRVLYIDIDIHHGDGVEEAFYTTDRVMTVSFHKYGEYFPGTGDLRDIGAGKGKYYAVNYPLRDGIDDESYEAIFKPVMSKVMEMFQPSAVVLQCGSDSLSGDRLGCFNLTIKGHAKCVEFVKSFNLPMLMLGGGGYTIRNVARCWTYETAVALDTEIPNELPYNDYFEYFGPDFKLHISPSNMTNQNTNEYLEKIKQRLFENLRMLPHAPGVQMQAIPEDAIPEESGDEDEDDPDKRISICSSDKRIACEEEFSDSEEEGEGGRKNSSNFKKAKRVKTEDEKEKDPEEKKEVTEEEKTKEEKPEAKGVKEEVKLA

Broadly, the IC50 is the concentration at which inhibition is half-maximal. In turn, `O=C(/C=C/c1ccc(C(=O)NO)cc1)N[C@@H](Cc1c[nH]c2ccccc12)C(=O)Nc1cccc2ccccc12` gave an IC50 at Histone deacetylase of 59.5 nM.
Still for that read-out and setting: for `CC(C)CNC(=O)[C@H](Cc1c[nH]c2ccccc12)NC(=O)/C=C/c1ccc(C(=O)NO)cc1` the value was 311.9 nM; for `Cc1cc(C)c(NC(=O)[C@H](Cc2c[nH]c3ccccc23)NC(=O)/C=C/c2ccc(C(=O)NO)cc2)c(C)c1`, 22.2 nM; for `Cc1ccc(NC(=O)[C@H](Cc2c[nH]c3ccccc23)NC(=O)/C=C/c2ccc(C(=O)NO)cc2)cc1`, 22.5 nM.
Same read-out and setting: for `O=C(/C=C/c1ccc(C(=O)NO)cc1)N[C@@H](Cc1c[nH]c2ccccc12)C(=O)Nc1ccncc1` the value was 36.9 nM.
Turning to `O=C(CCCCCCC(=O)Nc1ccccc1)NO` [VORINOSTAT], the results for the half-inhibitory concentration (IC50) with HeLa and with HEL were 1840 nM and 790 nM, respectively.
Consider `O=C(/C=C/c1ccc(C(=O)NO)cc1)N[C@@H](Cc1c[nH]c2ccccc12)C(=O)Nc1ccc(I)cc1`, for which, on Histone deacetylase, the half-maximal inhibitory concentration (IC50) turned out to be 29.5 nM.
`CC(C)(C)NC(=O)[C@H](Cc1c[nH]c2ccccc12)NC(=O)/C=C/c1ccc(C(=O)NO)cc1` registered a 50% inhibitory concentration (IC50) against Histone deacetylase of 165.5 nM. This IC50 lies about 5.6-fold higher than the previous one.
In the case of `O=C(/C=C/c1ccc(C(=O)NO)cc1)N[C@@H](Cc1c[nH]c2ccccc12)C(=O)Nc1ccccc1Cl`, at Histone deacetylase, the IC50 is reported as 57.1 nM. Against the preceding compound, the IC50 is about 2.9-fold lower.
`O=C(/C=C/c1ccc(C(=O)NO)cc1)N[C@@H](Cc1c[nH]c2ccccc12)C(=O)Nc1cccc(Cl)c1`: the IC50 amounted to 51.6 nM in test [1]; 400 nM with Jurkat; 1660 nM in the test on HeLa; 600 nM in test [2]; 490 nM in the test on HEL; 670 nM with MOLT-4. The IC50 against Histone deacetylase is 8.1 nM; against Histone deacetylase 11 it was 76.3 nM; at Histone deacetylase 8, 132 nM; with U-937 it was 660 nM; against Histone deacetylase 1, 22.9 nM.
At Histone deacetylase, `O=C(/C=C/c1ccc(C(=O)NO)cc1)N[C@@H](Cc1c[nH]c2ccccc12)C(=O)NCCc1ccccc1` displayed an IC50 of 21.8 nM. In other words, the double-digit nanomolar range.
For `COc1ccc(NC(=O)[C@H](Cc2c[nH]c3ccccc23)NC(=O)/C=C/c2ccc(C(=O)NO)cc2)cc1`, on Histone deacetylase, the 50% inhibitory concentration (IC50) is on record as 35.8 nM.
With `CCNC(=O)[C@H](Cc1c[nH]c2ccccc12)NC(=O)/C=C/c1ccc(C(=O)NO)cc1`, on Histone deacetylase, the concentration for half-maximal inhibition (IC50) came out at 112.1 nM.
Still for that read-out and setting: for `O=C(/C=C/c1ccc(C(=O)NO)cc1)N[C@@H](Cc1c[nH]c2ccccc12)C(=O)Nc1ccccc1` the value was 7.6 nM.
With `O=C(/C=C/c1ccc(C(=O)NO)cc1)N[C@@H](Cc1c[nH]c2ccccc12)C(=O)NC1CC1`, the half-inhibitory concentration (IC50) on Histone deacetylase came out at 268.9 nM.
Still for that read-out and setting: for `O=C(/C=C/c1ccc(C(=O)NO)cc1)N[C@@H](Cc1c[nH]c2ccccc12)C(=O)NC1CCCC1` the value was 249.1 nM.
Take `O=C(/C=C/c1ccc(C(=O)NO)cc1)N[C@@H](Cc1c[nH]c2ccccc12)C(=O)Nc1ccc(Br)cc1`: the IC50 in test [1] was found to be 127 nM; in the test on Jurkat, 780 nM; in the test with HeLa, 1200 nM; in [2] it was 620 nM; in the test on HEL it was 440 nM; with MOLT-4 it was 470 nM. Also, the IC50 worked out at 2 nM against Histone deacetylase; 176 nM on Histone deacetylase 11; 354 nM at Histone deacetylase 8; 510 nM in the test with U-937; 45.3 nM at Histone deacetylase 1.
In the case of `O=C(/C=C/c1ccc(C(=O)NO)cc1)N[C@@H](Cc1c[nH]c2ccccc12)C(=O)Nc1ccc(F)cc1`, the IC50 in the test with Jurkat came out at 980 nM; in the test on HeLa it was 1570 nM; in test [2] it was 1320 nM; with HEL, 990 nM; in the test with MOLT-4, 840 nM; at Histone deacetylase, 2 nM. Also, in the test on U-937, the 50% inhibitory concentration (IC50) worked out at 630 nM.
`O=C(/C=C/c1ccc(C(=O)NO)cc1)N[C@@H](Cc1c[nH]c2ccccc12)C(=O)NCc1ccccc1` came in with a 50% inhibitory concentration (IC50) against Histone deacetylase of 37.3 nM.
`O=C(/C=C/c1ccc(C(=O)NO)cc1)N[C@@H](Cc1c[nH]c2ccccc12)C(=O)Nc1ccc(Cl)cc1`: the IC50 turned out to be 12.6 nM in [1]; 2680 nM in the test on Jurkat; 1450 nM with HeLa; 1590 nM in test [2]; 1150 nM in the test with HEL; 680 nM in the test with MOLT-4. In addition, the IC50 turned out to be 5.7 nM at Histone deacetylase; 15.8 nM on Histone deacetylase 11; 47.3 nM on Histone deacetylase 8; 930 nM in the test with U-937; 54.7 nM at Histone deacetylase 1.
On Histone deacetylase, `CCCCNC(=O)[C@H](Cc1c[nH]c2ccccc12)NC(=O)/C=C/c1ccc(C(=O)NO)cc1` yielded a half-maximal inhibitory concentration (IC50) of 84.8 nM.
